From US11767341B2, “Lincosamide antibiotics and uses thereof” (President and Fellows of Harvard College, priority 2017, dated 2023)
Converted amounts (≈) assume the structure as drawn. Read-outs that look alike come from different tables or passages of the source.

Key:
Assay in all cases: MIC determination
Assay type in all cases: cell-based
S. pneumoniae ATCC 49619 = conditions: Streptococcus pneumoniae, ATCC49619; S. pneumoniae ATCC 49619; read-out: MIC
E. coli MP-9 ΔTolC = conditions: Escherichia coli
E. coli ATCC 25922 = conditions: Escherichia coli
[1] = system: S. aureus MP-549 msr(a) USA 300; conditions: Staphylococcus aureus, USA300, S. aureus MP-549 msr(a) USA 300
H. influenzae ATCC 49247 = conditions: Haemophilus influenzae, ATCC49247
E. faecalis ATCC 29212 = conditions: Enterococcus faecalis
S. aureus ATCC 29213 = conditions: Staphylococcus aureus
[2] = system: E. coli MP-74 LptD mutant; conditions: Escherichia coli
K. pneumoniae ATCC 10031 = conditions: Klebsiella pneumoniae, ATCC10031
S. pyogenes ATCC 19615 = conditions: Streptococcus pyogenes, ATCC19615; S. pyogenes ATCC 19615; read-out: MIC
[3] = ATCC29213, S. aureus ATCC 29213, read-out: MIC
[4] = ATCC25922, E. coli ATCC 25922, read-out: MIC
[5] = K. pneumoniae ATCC 10031, read-out: MIC
[6] = H. influenzae ATCC 49247, read-out: MIC

Row | SMILES | MIC (S. pneumoniae ATCC 49619) [µg/mL] | MIC (E. coli MP-9 ΔTolC) [µg/mL] | MIC (E. coli ATCC 25922; ATCC25922) [µg/mL] | MIC [1] [µg/mL] | MIC (H. influenzae ATCC 49247) [µg/mL] | MIC (E. faecalis ATCC 29212; ATCC29212) [µg/mL] | MIC (S. aureus ATCC 29213; [3]) [µg/mL] | MIC [2] [µg/mL] | MIC (K. pneumoniae ATCC 10031) [µg/mL] | MIC (S. pyogenes ATCC 19615) [µg/mL] | MIC (E. coli ATCC 25922; [4]) [µg/mL] | MIC (E. faecalis ATCC 29212; ATCC29212, read-out: MIC) [µg/mL] | MIC (S. aureus ATCC 29213; ATCC29213) [µg/mL] | MIC (K. pneumoniae ATCC 10031; [5]) [µg/mL] | MIC (H. influenzae ATCC 49247; [6]) [µg/mL]
1 | CSC1O[C@H]([C@H](NC(=O)[C@H]2NC[C@@H]3CC(NCc4ccc(F)cc4)CCO[C@H]32)[C@H](C)Cl)C(O)[C@@H](O)[C@H]1O (stereo partly shown) [FSA-510074] | 32 (≈ 56.9 µM) | > 64 | > 64 | 64 (≈ 114 µM) | > 64 | > 64 | 64 (≈ 114 µM) | > 64 | > 64 | 8 (≈ 14.2 µM) |  |  |  |  | 
2 | CSC1O[C@H]([C@H](NC(=O)[C@H]2NC[C@@H]3CC(c4ccc(C)cc4)=CCO[C@H]32)[C@H](C)Cl)C(O)[C@@H](O)[C@H]1O (stereo partly shown) [FSA-511019] | 0.25 (≈ 0.474 µM) | 32 (≈ 60.7 µM) |  | 0.5 (≈ 0.949 µM) | 64 (≈ 121 µM) |  |  | 64 (≈ 121 µM) |  | 0.125 (≈ 0.237 µM) | > 64 | 4 (≈ 7.59 µM) | 0.5 (≈ 0.949 µM) | > 64 | 
3 | COc1ccc(C2=CCO[C@@H]3[C@H](CN[C@@H]3C(=O)N[C@H]([C@H](C)Cl)[C@H]3OC(SC)[C@H](O)[C@H](O)C3O)C2)cc1 (stereo partly shown) [FSA-511020] | ≤ 0.06 | 64 (≈ 118 µM) |  | 1 (≈ 1.84 µM) | 64 (≈ 118 µM) |  | 0.5 (≈ 0.921 µM) | 64 (≈ 118 µM) |  | ≤ 0.06 | > 64 | 4 (≈ 7.37 µM) |  | > 64 | 
4 | CSC1O[C@H]([C@H](NC(=O)[C@H]2NC[C@@H]3CC(c4ccc(C#N)cc4)=CCO[C@H]32)[C@H](C)Cl)C(O)[C@@H](O)[C@H]1O (stereo partly shown) [FSA-511033] | ≤ 0.06 | 32 (≈ 59.5 µM) |  | 1 (≈ 1.86 µM) | 64 (≈ 119 µM) |  | 0.5 (≈ 0.929 µM) | 64 (≈ 119 µM) | 64 (≈ 119 µM) | ≤ 0.06 | > 64 | 2 (≈ 3.72 µM) |  |  | 
5 | CSC1O[C@H]([C@H](NC(=O)[C@H]2NC[C@@H]3C[C@@H](C4CCNCC4)CCO[C@H]32)[C@H](C)Cl)C(O)[C@@H](O)[C@H]1O (stereo partly shown) [FSA-512011] | 1 (≈ 1.92 µM) | > 256 | > 256 | 8 (≈ 15.3 µM) | > 256 |  | 8 (≈ 15.3 µM) | > 256 |  | 4 (≈ 7.66 µM) |  | 64 (≈ 123 µM) |  |  | 
6 | CSC1O[C@H]([C@H](NC(=O)[C@H]2NC[C@@H]3C[C@@H](C4CCN(C)CC4)CCO[C@H]32)[C@H](C)Cl)C(O)[C@@H](O)[C@H]1O (stereo partly shown) [FSA-512012] | 1 (≈ 1.87 µM) | > 256 | > 256 | 8 (≈ 14.9 µM) | > 256 |  | 8 (≈ 14.9 µM) | > 256 |  | 4 (≈ 7.46 µM) |  | 64 (≈ 119 µM) |  |  | 
7 | CSC1O[C@H]([C@H](NC(=O)[C@H]2NC[C@@H]3C=C(c4ccc(C)cc4)CCO[C@@H]23)[C@H](C)Cl)C(O)[C@@H](O)[C@H]1O (stereo partly shown) [FSA-512075] | 0.25 (≈ 0.474 µM) | 32 (≈ 60.7 µM) |  | 0.25 (≈ 0.474 µM) | 64 (≈ 121 µM) |  | 0.5 (≈ 0.949 µM) | 64 (≈ 121 µM) |  | 0.25 (≈ 0.474 µM) | > 256 | 2 (≈ 3.79 µM) |  |  | 
8 | COc1ccc(C2=C[C@H]3CN[C@H](C(=O)N[C@H]([C@H](C)Cl)[C@H]4OC(SC)[C@H](O)[C@H](O)C4O)[C@@H]3OCC2)cc1 (stereo partly shown) [FSA-512076] | ≤ 0.12 | 64 (≈ 118 µM) |  | 0.25 (≈ 0.46 µM) |  |  | 0.25 (≈ 0.46 µM) | 64 (≈ 118 µM) |  | ≤ 0.12 | > 256 | 2 (≈ 3.68 µM) |  |  | 128 (≈ 236 µM)
9 | CSC1O[C@H]([C@H](NC(=O)[C@H]2NC[C@@H]3C=C(c4ccc(C#N)cc4)CCO[C@@H]23)[C@H](C)Cl)C(O)[C@@H](O)[C@H]1O (stereo partly shown) [FSA-512077] | ≤ 0.12 | 16 (≈ 29.7 µM) |  | 0.25 (≈ 0.465 µM) |  |  | 0.5 (≈ 0.929 µM) | 64 (≈ 119 µM) |  | ≤ 0.12 | > 256 | 1 (≈ 1.86 µM) |  |  | 128 (≈ 238 µM)
10 | CSC1O[C@H]([C@H](NC(=O)[C@H]2NC[C@@H]3C[C@@H](c4ccc(C)cc4)CCO[C@H]32)[C@H](C)Cl)C(O)[C@@H](O)[C@H]1O (stereo partly shown) [FSA-512079b] |  | 8 (≈ 15.1 µM) |  | 0.5 (≈ 0.945 µM) | 16 (≈ 30.2 µM) |  |  | 16 (≈ 30.2 µM) | 16 (≈ 30.2 µM) | ≤ 0.12 | > 128 | 1 (≈ 1.89 µM) | 0.5 (≈ 0.945 µM) |  | 
11 | CSC1O[C@H]([C@H](NC(=O)[C@H]2NC[C@@H]3C[C@H](c4ccc(C)cc4)CCO[C@H]32)[C@H](C)Cl)C(O)[C@@H](O)[C@H]1O (stereo partly shown) [FSA-512079c] |  | 8 (≈ 15.1 µM) |  | 0.5 (≈ 0.945 µM) | 16 (≈ 30.2 µM) |  |  | 16 (≈ 30.2 µM) | 16 (≈ 30.2 µM) | ≤ 0.12 | > 128 | 2 (≈ 3.78 µM) | 0.5 (≈ 0.945 µM) |  | 
